Measurements from a melting point compilation (Tetko et al.; mined from patent text by program, amines drawn as free bases though some values may be those of a salt).

melting point [°C]	Compound
65 to 67	CCOc1cc(C(CC(=O)OC)N2C(=O)c3ccc(N)cc3C2=O)ccc1OC (stereo not given)
90.1 to 92.4	CCCCn1c(N)cc(=O)n(CCCC)c1=O
> 250	O=C(O)Cn1c(-c2ccc(Cl)cc2)nc2ccc(Cl)nc21
95 to 98	O=C1[C@H]2CCC[C@H]2N(C(=O)CNCc2ccccc2)c2ccccc2N1Cc1ccccc1 (relative stereo)
142 to 144	CCOC(=O)c1c(O)c2cccnc2n(Cc2ccc(Cl)cc2)c1=O
158 to 160	CS(=O)(=O)c1ccc(-c2cnn(CC(F)(F)F)c(=O)c2Nc2ccc(F)cc2)cc1
151 to 152	CS(=O)c1nnc(-c2ccc3occ(-c4cc(F)ccc4F)c3c2)o1 (stereo not given)
97 to 98	CC(C)=CCON1C(=O)c2ccccc2C1=O
179 to 182	CCc1nc2c(C)c(S(=O)(=O)N(C)C)c(C)nc2[nH]1
158 to 163	CC1(C)OC(=O)c2c(cccc2-c2ccccc2)O1
194 to 196	CC(=O)CCCn1c(C)nc2c(N)nc3ccccc3c21
31 to 33	CC(O)(CCBr)C1CCCCC1 (stereo not given)
119 to 121	CC(O)C(C)C1=C2C(C)(C)C3CCC2(C3)C(C)(C)CC1 (stereo not given)
119 to 120	COc1nccnc1NS(=O)(=O)c1ccc(Cl)s1
209 to 211	COc1ccc(CN2C(=O)C3(COc4cc5c(cc43)OCCO5)c3ccccc32)cc1OC (stereo not given)
125 to 127	CNC(=O)n1nc(Oc2c(Cl)cc(C(F)(F)F)cc2Cl)c(Cl)c1C
79 to 82	CC(C)(C(N)=O)c1cccc(Cn2ccnc2)c1
92 to 94	CCCCc1ccc(CCCCC(N)(CO)CO)cc1
88	CN(C)CCCOc1ccc2ccc(N)nc2n1
198 to 199	O=C(O)C12CC3(F)CC(F)(CC(F)(C3)C1)C2
218 to 219	O=C1NS(=O)(=O)CCC1c1ccc([N+](=O)[O-])cc1F (stereo not given)
92 to 94	COc1ccsc1C1CCN(C[C@H](Cc2ccccc2)NC(=O)C2CCCCC2)CC1
125 to 128	N#Cc1ccc(OCC(O)CN2C3CCC2CNC3)cc1 (stereo not given)

melting point [°C]	Compound
113 to 114	CNC(=O)c1c(NC)ncn1Cc1ccccc1
83 to 84	CNC(=O)C(=O)CCCCCCSc1nc2ccccc2s1
54 to 57	COC(=O)c1ccc(N(C)C)cc1C(=O)OC
135	COc1cc2c(cc1CCNC(=O)Cc1ccccc1)CCC2
211 to 212	CS(=O)(=O)c1ccccc1S(=O)(=O)Nc1cccc2cc(C3=NCCS3)[nH]c12
267	CNc1nc(Nc2ccc(Cl)c(Cl)c2)ncc1NC(C)=O
82 to 82.5	CN1CCN(c2cccc3ccc(OC(=O)c4ccccc4)cc23)CC1
235	CN(C(=O)CN(C(=O)CNC(=O)Nc1cccc(N2CCCCC2)c1)c1ccccc1)c1ccccc1
97 to 99	CN(C)CCc1[nH]c2ccccc2c1CSc1ccccc1
94 to 95	Cc1cc(C)cc(Oc2cccc([N+](=O)[O-])n2)c1
73	N#Cc1cccc2c1C(O)CC2 (stereo not given)
198 to 199	COc1cc(OC)c2c(=O)[nH]c(-c3cc(C)c(OCCN4CCCCCC4)c(C)c3)nc2c1
176 to 178	NC(=O)/C=C/c1cc2c(Oc3ccc(Cl)cc3)cncc2s1
142 to 144	Cc1cc(C)c2sc(N)nc2c1
211 to 213	COc1ccc(-c2csc(Nc3cc(C)ccn3)n2)cc1OC
70 to 72	CCCCCCCNC(=O)N(C)c1cccc(-c2ccc(C=C(C)C(=O)O)cc2OCCCC)c1
159 to 162	CC(=O)NC1Cc2cn(S(=O)(=O)c3c(C(C)C)cc(C(C)C)cc3C(C)C)c3cccc(c23)C1=O (stereo not given)
129 to 130	CCCN(CCC)C(C)C(=O)Nc1cccc2c1C(=O)c1c(NC(=O)C(C)N(CCC)CCC)cccc1C2=O (stereo not given)
76.5 to 88.5	Cc1cc(C2(C(F)(F)F)CC(c3ccc(S(C)=O)cc3)=NO2)ccc1NC(=O)OC(C)(C)C (stereo not given)
160 to 161	CCCCOC(=O)C(N)C=CCP(=O)(O)O (stereo not given)
107 to 110	CC1(C2CCCC2)Cc2cc(OCCCCCCC(=O)O)c(Cl)c(Cl)c2C1=O (stereo not given)
170 to 172	C#Cc1cccc(-c2nccc3nc(N)nn23)c1
231	CS(=O)(=O)c1cccc(-c2cn(-c3nc(-c4ccc(C(F)(F)F)cc4)cc(C(F)(F)F)n3)cn2)c1

melting point [°C]	Compound
310 to 320	Cc1cscc1NC(=S)Nc1cc(Cl)c(Cl)cc1N
120 to 122	CS(=O)(=O)Nc1ccc(C(O)CN2CCCCCC2)cc1 (stereo not given)
143 to 144	CCCS(=O)(=O)c1sc(C(N)=O)c2c1-c1c(cnn1CC)CC2
113 to 114	COc1cc(OC(C)C)cc2oc(C)cc(=S)c12
167 to 170	CCS(=O)(=O)c1cc(OC)c(OC)c(C(=O)NCC2CCCN2CC2CC2)c1 (stereo not given)
210 to 211	Cc1ccc(C(=O)NC(NC(=S)Nc2ccccc2C)C(F)(F)F)cc1 (stereo not given)
270	O=C(Oc1ccccc1)OC1c2nccnc2C(=O)N1c1ccc2ccc(Cl)nc2n1 (stereo not given)
85.5 to 85.9	COc1ccc2c(c1)CCC1C2CCC2(C)C(NCc3cccs3)CCC12 (stereo not given)
146	CCC(=O)Nc1c(C)c(C)c2c(c1C)CC(C)(C)O2
103 to 104	COc1cccc(-c2ccnc(Nc3cccc(OC(F)(F)C(F)F)c3)n2)c1
258	CN(C)c1ccc2[nH]c(=O)oc(=O)c2c1
191 to 195	CCN(CC)Cc1ccc(-c2ccc3c(Nc4cc(OC)c(Cl)cc4Cl)c(C#N)cnc3c2)cc1
138	O=c1c2cc(Cl)ccc2ncn1CCCN1CCC(c2c[nH]c3ccccc23)CC1
155 to 160	COc1ccc2c(c1C=O)Nc1ccccc1S2
128	CC(=O)c1cc(NC(=O)NCCCC(C)CNC(=O)Nc2cc(C(C)=O)cc(C(C)=O)c2)cc(C(C)=O)c1 (stereo not given)
40.5 to 41	O=C1c2ccccc2COc2ccc(CCCOC(=O)C(F)(F)F)cc21
265 to 267	CN1CC(C(=O)c2c[nH]cc2Cc2ccc(F)cc2)=C(O)C1=O
248	Cc1nc(CCc2ccccc2)c2c(c1O)COC2
198 to 199	CC(C)(C)c1ccc(/C=C/C(=O)Nc2ccc3c(c2)CCCC3)cc1
153 to 157	CCCc1nc(C(O)C(C)C)c(C(N)=O)n1Cc1ccc(-c2ccccc2-c2nnn[nH]2)cc1 (stereo not given)
105 to 107	COc1ccc2c(c1)C(C(Cl)(Cl)Cl)OC(C(Cl)(Cl)Cl)O2 (stereo not given)
166 to 167	CCCCOc1c(C(=O)O)n(CC2CC2)c(=O)c2ccc(Br)cc12
142 to 144	C=CCn1c(=O)c2ccccc2n2c(CCCl)nnc12

Compound	melting point [°C]
CC1(Br)CCCNC1=O (stereo not given)	107 to 109
CN1CC=C(c2c[nH]c3ccc(C4CN=CS4)cc23)CC1 (stereo not given)	260 to 263
CC(C)(C)OC(=O)c1ncn2c1[C@@H]1CCCN1C(=O)c1c-2ccc(Cl)c1Cl	213 to 214
CC1(CS(=O)(=O)c2ccccc2)COC2(CCC(=O)CC2)OO1 (stereo not given)	96
CCOC(=O)c1c2n(c3cc(N4CCNCC4)c(F)cc3c1=O)C(C)S2 (stereo not given)	224
CCOC(=O)CN(SN(C)C(=O)Oc1cccc2c1OC(C)(C)C2)C(=O)CC	108 to 109
